Test results taken from PMC7823652 (Viruses, 2020).
Read-outs that look alike come from different tables or passages of the source.

Legend:
[1] = test system: ZIKV; test: Image-based phenotypic antiviral screen in ZIKV-infected U87 cells; format: cell-based, Zika virus (strain H/PF/2013); settings: for inhibition at 10 µM: Zika virus, U-87 MG
[2] = Screen cytotoxicity by nuclei count in ZIKV-infected U87 cells; format: cell-based; settings: human, ZIKV-infected U87 cells
[3] = test system: HAZV; test: microbe, parasite or virus in culture; format: cell-based, Hazara virus (isolate JC280); settings: for inhibition at 10 µM: Hazara virus, SW13, 24 h
[4] = test system: ZIKV; test: Antiviral dose-response in ZIKV-infected U87 cells (infected cells, viral titer); format: cell-based, Zika virus (strain H/PF/2013); settings: Zika virus, U-87 MG; for IC50: ZIKV; for EC50: U87, ZIKV MOI 1, 48 h
[5] = test system: ZIKV; test: Antiviral dose-response in ZIKV-infected Vero cells; format: cell-based, Zika virus (strain H/PF/2013); settings: Zika virus
[6] = test system: U87 cells; test: Cell viability by nuclei count in ZIKV-infected U87 cells; format: cell-based, Human
[7] = test system: Vero cells; test: Cell viability by nuclei count in ZIKV-infected Vero cells; format: cell-based, African Green Monkey
[8] = Cell viability assay (Resazurin), uninfected U87 cells; format: cell-based, Human; settings: human, read-out: Viability CC50 [µM] (95%-CI)
[9] = test system: U87 cells; test: as above; format: cell-based, Human; settings: Homo sapiens, U-87 MG; U87, Resazurin, all measured time points (24, 48 or 72 h); read-out: IC50 (toxicity profile, cellular viability)
[10] = in vitro; format: cell-based; settings: African green monkey
[11] = test system: ZIKV; test: ZIKV-induced cytopathic effect in U87 cells (immunofluorescence imaging); format: cell-based, Zika virus (strain H/PF/2013); settings: U87, ZIKV MOI 1, 10 μM TH6744, 24, 48 or 72 h
[12] = test system: ZIKV; test: End-point dilution assay by CPE, ZIKV-infected Vero cells; format: cell-based, Zika virus (strain H/PF/2013); settings: ZIKV MOI 0.1, increasing doses, 24 h
[13] = test system: ZIKV; test: ZIKV infection (NS1 intensity) and viral titer in human cerebral organoids; format: cell-based, Zika virus (strain H/PF/2013); settings: ZIKV 2 × 10^4 particles/organoid, 5 μM
[14] = test system: ZIKV; test: Time-of-addition assay in ZIKV-infected U87 cells; format: cell-based, Zika virus (strain H/PF/2013)
[15] = test system: ZIKV; test: Viral budding assay in ZIKV-infected U87 cells; format: cell-based, Zika virus (strain H/PF/2013)
[16] = test system: human brain organoids; test: Viability and structure of ZIKV-infected human cerebral organoids; settings: ZIKV 2 × 10^4 particles/organoid, 5 μM, 7 dpi and 10 dpi
[17] = test system: ZIKV; test: Time course of ZIKV replication in U87 cells (vRNA, infected cells, titer)
[18] = U87, ZIKV MOI 10, 22 h then 5 μM for 2 h
[19] = U87, ZIKV MOI 10, 22 h then 10 μM for 2 h

CCOC(=O)c1cnn(-c2cccc3c2[nH]c(=O)n3C2CCN(C(=O)Nc3ccc(I)cc3)CC2)c1 [TH6744]
Viral Titer (ZIKV) (%) ([1]; U87, ZIKV MOI 10, compound 10 µM, 48 h, relative to DMSO): 5%
Infected Cells (U87, ZIKV) (%) ([1]; ZIKV MOI 10, compound 10 µM, 48 h, relative to DMSO): 88%
inhibition at 10 µM ([1]; U87, ZIKV MOI 10, compound 10 µM, 48 h, relative to DMSO, read-out: Inhibition of ZIKV titer (%)): 95%
inhibition at 10 µM ([1]; U87, ZIKV MOI 10, compound 10 µM, 48 h, relative to DMSO, read-out: Inhibition of primary ZIKV infection (%)): 12%
Infected Cells (U87, ZIKV) ([1]; screen, U87 cells, ZIKV): 88%
Viral Titer (ZIKV) ([1]; screen, U87 cells, ZIKV): 5%
viability at 48 h, 10 µM ([2]; ZIKV MOI 10, compound 10 µM, 48 h, nuclei count relative to DMSO): 105%
viability at 10 µM ([2]; screen): 105%
inhibition at 10 µM ([3]; read-out: Inhibition of HAZV titer (%)): 90%
inhibition at 10 µM ([3]; read-out: Inhibition of primary HAZV infection (%)): 85%
Infected Cells (SW13, HAZV) ([3]; screen, SW13 cells, HAZV): 15%
Viral Titer (HAZV) ([3]; screen, SW13 cells, HAZV): 10%
IC50 ([4]; 24 h, U87, MOI 1, 24 h, read-out: Antiviral on primary infection IC50): > 50 µM
IC50 ([4]; 24 h, U87, MOI 1, 24 h, read-out: Antiviral on titer (µM) IC50): > 50 µM
IC50 ([4]; 24 h, U87, MOI 10, 24 h, read-out: Antiviral on primary infection IC50): > 50 µM
IC50 ([4]; 24 h, U87, MOI 10, 24 h, read-out: Antiviral on titer (µM) IC50): 10.3 µM
IC50 ([4]; 48 h, U87, MOI 1, 48 h, read-out: Antiviral on primary infection IC50): 7.5 µM
IC50 ([4]; 48 h, U87, MOI 1, 48 h, read-out: Antiviral on titer (µM) IC50): 4.4 µM
IC50 ([4]; 48 h, U87, MOI 10, 48 h, read-out: Antiviral on primary infection IC50): 12.2 µM
IC50 ([4]; 48 h, U87, MOI 10, 48 h, read-out: Antiviral on titer (µM) IC50): 9.2 µM
EC50 ([4]; ZIKV NS1 staining, read-out: EC50 [μM] Infected cells): 7.5 µM
EC50 ([4]; end-point dilution assay, read-out: EC50 [μM] Viral titer): 4.4 µM
IC50 ([5]; 24 h, MOI 1, 24 h, read-out: Antiviral on primary infection IC50): 48.4 µM
IC50 ([5]; 24 h, MOI 1, 24 h, read-out: Antiviral on titer (µM) IC50): 3.9 µM
IC50 ([5]; 24 h, MOI 10, 24 h, read-out: Antiviral on primary infection IC50): > 50 µM
IC50 ([5]; 24 h, MOI 10, 24 h, read-out: Antiviral on titer (µM) IC50): 5.5 µM
IC50 ([5]; 48 h, MOI 1, 48 h, read-out: Antiviral on primary infection IC50): 2.9 µM
IC50 ([5]; 48 h, MOI 1, 48 h, read-out: Antiviral on titer (µM) IC50): 3.6 µM
IC50 ([5]; 48 h, MOI 10, 48 h, read-out: Antiviral on primary infection IC50): 5.8 µM
IC50 ([5]; 48 h, MOI 10, 48 h, read-out: Antiviral on titer (µM) IC50): 7.2 µM
EC50 ([6]; Homo sapiens, U-87 MG, U87, ZIKV MOI 1, 48 h, nuclei count, read-out: EC50 [μM] Living cells): > 50 µM
EC50 ([6]; Homo sapiens, U-87 MG, ZIKV, U87, MOI 10, 24 h, read-out: Viability (nuclei count) EC50): > 50 µM
EC50 ([6]; Homo sapiens, U-87 MG, ZIKV, U87, MOI 10, 48 h, read-out: Viability (nuclei count) EC50): > 50 µM
viability (nuclei count) ([6]; U87, ZIKV MOI 1, 24 hpi): without affecting the viability
EC50 ([6]; ZIKV, U87, MOI 1, 24 h, read-out: Viability (nuclei count) EC50): > 50 µM
EC50 ([6]; ZIKV, U87, MOI 1, 48 h, read-out: Viability (nuclei count) EC50): > 50 µM
EC50 ([7]; Chlorocebus sabaeus, MOI 10, 24 h): > 50 µM
EC50 ([7]; Chlorocebus sabaeus, MOI 10, 48 h): > 50 µM
EC50 ([7]; MOI 1, 24 h): > 50 µM
EC50 ([7]; MOI 1, 48 h): > 50 µM
CC50 at 24 h ([8]; uninfected U87, 24 h): > 50 µM
CC50 at 48 h ([8]; uninfected U87, 48 h): > 50 µM
CC50 at 72 h ([8]; uninfected U87, 72 h): > 50 µM
IC50 [9]: > 50 µM
CC50 at 24 h [10]: > 50 µM
CC50 at 48 h [10]: > 50 µM
CC50 at 72 h [10]: > 50 µM
effect on ZIKV-induced CPE in U87 cells [11]: reversed ZIKV-induced CPE
viral titer measured by CPEs [12]: reduced viral titer in a dose-dependent manner
ZIKV NS1 intensity in sectioned organoids (primary virus infection) ([13]; 7 dpi): marked reduction
reduction of ZIKV progeny particles produced by the organoids ([13]; all timepoints, relative to DMSO): 70–80%
reduction on viral titer, entry ([14]; U87, ZIKV MOI 10, 10 μM TH6744, 1 h pre-treatment and during inoculation, titer at 24 hpi): 50%
viral titer, post-inoculation ([14]; U87, ZIKV MOI 10, 10 μM TH6744 directly after inoculation for 24 h): pronounced reduction of viral titer
titer reduction, virus budding ([14]; U87, ZIKV MOI 10, 10 μM TH6744 from 22 h after inoculation for 2 h): 50%
infectivity of pre-budding and post-budding particles ([15]; U87, ZIKV MOI 10, 2 h TH6744 treatment (5 or 10 μM), dose-dependent): reduced to a similar extent
Fraction of infectious ZIKV particles: Extracellular [15, 18]: 94.30%
Fraction of infectious ZIKV particles: Intracellular [15, 18]: 5.70%
Fraction of infectious ZIKV particles: Extracellular [15, 19]: 93.44%
Fraction of infectious ZIKV particles: Intracellular [15, 19]: 6.56%
phenotypic rescue (retained structure of organoids) [16]: phenotypic rescue
ZIKV-infected cells ([17]; U87, ZIKV MOI 1, 24 hpi): no reduction
reduction of extracellular vRNA levels ([17]; U87, ZIKV MOI 1, 24 hpi): 50%
reduction of viral titers ([17]; U87, ZIKV MOI 1, 24 hpi): 75%
intracellular ZIKV vRNA ([17]; U87, ZIKV MOI 1, 24 hpi, qPCR): no reduction
intracellular ZIKV vRNA levels ([17]; U87, ZIKV MOI 1, 48 hpi): remained unchanged
reduction of number of ZIKV-infected cells ([17]; U87, ZIKV MOI 1, 48 hpi): 65%
reduction of titer ([17]; U87, ZIKV MOI 1, 48 hpi): 83%
decrease of number of ZIKV-infected cells ([17]; U87, ZIKV MOI 1, 72 h exposure): 40%
decrease of viral titer ([17]; U87, ZIKV MOI 1, 72 h exposure): 63%
